Assay results: US20260042764A1, “COMPOSITIONS AND METHODS FOR INHIBITION OF KRAS” (TheRas, Inc., priority 2022, published 2026)

What was measured:
GP2d cells (KRAS G12D) = test: Cell-based pERK HTRF assay in GP2d cell (Biological Example 2); settings: GP2d (KRAS G12D) cells, pERK HTRF
Outline: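 Phospho-ERK is measured by HTRF following a 60 min compound exposure at 0.25% DMSO, with a 9-point half-log curve topping at 1 μM or 100 nM.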

[1] = target: T1, Avi-KRAS G12R (1-169) GppNHp/RAF1 RBD-3xFLAG (52-151) (Homo sapiens, UniProt P01116, G12R); test: Raf1-KRAS G12R-GppNHP disruption HTRF assay (Biological Example 1); format: binding; settings: KRAS G12R, GppNHp-loaded; Table 11
T1 construct: Avi-KRAS G12R (1-169)
T1 sequence (P01116 1-169 isoform P01116-2 G12R): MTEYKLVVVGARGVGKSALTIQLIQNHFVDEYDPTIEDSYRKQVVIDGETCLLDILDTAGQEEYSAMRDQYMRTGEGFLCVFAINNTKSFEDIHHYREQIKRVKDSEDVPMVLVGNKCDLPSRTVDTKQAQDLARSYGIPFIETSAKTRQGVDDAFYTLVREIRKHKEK
Protocol: A protein:protein interaction (PPI) Homogeneous Time Resolved Fluorescence (HTRF) assay was used to determine the effectiveness of compounds of the present disclosure in disrupting KRAS protein and effector RAF1 binding.
The assay buffer included: 50 mM Tris pH 7.5, 100 mM NaCl, 5 mM MgCl2, 0.1% BSA, 0.01% Tween, and 10% DMSO. The bead buffer included: 50 mM Tris pH 7.5, and 0.01% Tween 20. Assay volume of 20 μL was used in a 384 well plate-low volume format.
The HTRF assay employed the following protocol:
Protein mix was prepared in assay buffer, and dispensed on plates, 10 μL per well, then incubated for 1 h at room temperature, with 700 rpm shaking, Reagents mix was prepared and dispensed on plates, 10 μL per well, then incubated for 1 h at room temperature, with 700 rpm shaking.
Data was reported as percentage of activity, with DMSO as 100%. Data was plotted and analyzed using Prism 8.

[2] = target: T2, Avi-KRAS G12V (1-169) GppNHp/RAF1 RBD-3xFLAG (52-151) (Homo sapiens, UniProt P01116, G12V); test: Raf1-KRAS G12V-GppNHP disruption HTRF assay (Biological Example 1); format: binding; settings: KRAS G12V, GppNHp-loaded; Table 11
T2 construct: Avi-KRAS G12V (1-169)
T2 sequence (P01116 1-169 isoform P01116-2 G12V): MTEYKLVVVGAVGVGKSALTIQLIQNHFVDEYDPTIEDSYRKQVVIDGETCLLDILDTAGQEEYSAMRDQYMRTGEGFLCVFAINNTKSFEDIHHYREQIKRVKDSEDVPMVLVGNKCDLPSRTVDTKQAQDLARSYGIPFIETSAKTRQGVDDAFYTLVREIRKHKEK
Outline: (§1)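 Read-out is HTRF signal of the KRAS–RAF1 RBD complex, reported as percentage of activity relative to DMSO (100%). Protein mix and detection reagents each incubated 1 h at room temperature with 700 rpm shaking. Buffer: 50 mM Tris pH 7.5, 100 mM NaCl, 5 mM MgCl2, 0.1% BSA, 0.01% Tween, 10% DMSO.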

[3] = target: T3, Avi-KRAS G12D (1-169) GppNHp/RAF1 RBD-3xFLAG (52-151) (Homo sapiens, UniProt P01116, G12D); test: Raf1-KRAS G12D-GppNHP disruption HTRF assay (Biological Example 1); format: binding; settings: KRAS G12D, GppNHp-loaded; Table 11
T3 construct: Avi-KRAS G12D (1-169)
T3 sequence (P01116 1-169 isoform P01116-2 G12D): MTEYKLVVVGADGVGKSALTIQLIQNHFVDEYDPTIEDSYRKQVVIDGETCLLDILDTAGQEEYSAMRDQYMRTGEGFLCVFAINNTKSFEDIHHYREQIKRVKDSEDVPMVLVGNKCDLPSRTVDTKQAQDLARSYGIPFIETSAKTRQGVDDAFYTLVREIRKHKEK
Outline: as §1

[4] = target: T4, Avi-KRAS WT (1-169) GppNHp/RAF1 RBD-3xFLAG (52-151) (Homo sapiens, UniProt P01116); test: Raf1-KRAS WT-GppNHP disruption HTRF assay (Biological Example 1); format: binding; settings: KRAS WT, GppNHp-loaded; Table 11
T4 construct: Avi-KRAS WT (1-169)
T4 sequence (P01116 1-169 isoform P01116-2): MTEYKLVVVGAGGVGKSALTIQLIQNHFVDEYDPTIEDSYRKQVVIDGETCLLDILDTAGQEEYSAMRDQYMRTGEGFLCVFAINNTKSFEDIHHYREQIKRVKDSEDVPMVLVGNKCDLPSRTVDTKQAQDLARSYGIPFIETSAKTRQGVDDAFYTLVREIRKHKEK
Outline: as §1

With `N#Cc1c(N)sc2c(F)ccc(-c3c(C(F)(F)F)cc4c(N5CC[C@H](CO)C5)nc(OC[C@@]56CCCN5C[C@H](F)C6)nc4c3F)c12` [Compound 123] the IC50 (GP2d cells (KRAS G12D); GP2d) was < 0.1 µM, the IC50 [1] was 0.1 to 1 µM and the IC50 [2] was 0.1 to 1 µM. The IC50 [3] was 0.1 to 1 µM and the IC50 [4] was 0.1 to 1 µM.
For `CN(c1nc(OC[C@@]23CCCN2C[C@H](F)C3)nc2c(F)c(-c3ccc(F)c4sc(N)c(C#N)c34)c(C(F)(F)F)cc12)[C@H]1CCN(S(C)(=O)=O)C1` [Compound 119], the IC50 (GP2d cells (KRAS G12D); GP2d) was < 0.1 µM, the IC50 [1] was 1 to 10 µM and the IC50 [2] was 1 to 10 µM. For the same molecule, the IC50 [3] was 1 to 10 µM and the IC50 [4] was 0.1 to 1 µM.
With `C[C@H](CO)N(C)c1nc(OC[C@@]23CCCN2C[C@H](F)C3)nc2c(F)c(-c3ccc(F)c4sc(N)c(C#N)c34)c(C(F)(F)F)cc12` [Compound 76] the IC50 (GP2d cells (KRAS G12D); GP2d) was < 0.1 µM, the IC50 [1] was 0.1 to 1 µM and the IC50 [2] was 0.1 to 1 µM. The IC50 [3] was < 0.1 µM and the IC50 [4] was 0.1 to 1 µM.
For `N#Cc1c(N)sc2c(F)ccc(-c3c(C(F)(F)F)cc4c(N5CCOCC5)nc(OC[C@@]56CCCN5C[C@H](F)C6)nc4c3F)c12` [Compound 90], the IC50 (GP2d cells (KRAS G12D); GP2d) was < 0.1 µM, the IC50 [1] was 0.1 to 1 µM and the IC50 [2] was 0.1 to 1 µM. It also gave an IC50 [3] of 0.1 to 1 µM and an IC50 [4] of 0.1 to 1 µM.
`N#Cc1c(N)sc2c(F)ccc(-c3c(C(F)(F)F)cc4c(N5CC6CCC(C5)C6O)nc(OC[C@@]56CCCN5C[C@H](F)C6)nc4c3F)c12` (stereo partly drawn) [Compound 128] was tested, and the IC50 (GP2d cells (KRAS G12D); GP2d) was < 0.1 µM, the IC50 [1] was 0.1 to 1 µM and the IC50 [2] was 1 to 10 µM. The IC50 [3] was 0.1 to 1 µM and the IC50 [4] was 0.1 to 1 µM.
With `CCN(C)c1nc(OC[C@@]23CCCN2C[C@H](F)C3)nc2c(F)c(-c3ccc(F)c4sc(N)c(C#N)c34)c(C(F)(F)F)cc12` (single isomer, unassigned) [Compound 197] the IC50 (GP2d cells (KRAS G12D)) was > 1 µM, the IC50 [1] was > 10 µM and the IC50 [2] was > 10 µM. For the same molecule, the IC50 [3] was > 10 µM and the IC50 [4] was > 10 µM.
With `N#Cc1c(N)sc2c(F)ccc(-c3c(C(F)(F)F)cc4c(N5CC6(COC6)C5)nc(OC[C@@]56CCCN5C[C@H](F)C6)nc4c3F)c12` [Compound 149] the IC50 (GP2d cells (KRAS G12D); GP2d) was < 0.1 µM, the IC50 [1] was 1 to 10 µM and the IC50 [2] was 1 to 10 µM. For the same molecule, the IC50 [3] was 0.1 to 1 µM and the IC50 [4] was 0.1 to 1 µM.
`CCN(c1nc(OC[C@@]23CCCN2C[C@H](F)C3)nc2c(F)c(-c3ccc(F)c4sc(N)c(C#N)c34)c(C(F)(F)F)cc12)C1CC1` [Compound 155] was tested, and the IC50 (GP2d cells (KRAS G12D); GP2d) was < 0.1 µM, the IC50 [1] was 0.1 to 1 µM and the IC50 [2] was 1 to 10 µM. It also gave an IC50 [3] of 0.1 to 1 µM and an IC50 [4] of 1 to 10 µM.
In the case of `CN(c1nc(OC[C@@]23CCCN2C[C@H](F)C3)nc2cc(-c3ccc(F)c4sc(N)c(C#N)c34)c(C(F)(F)F)cc12)[C@H]1C[C@@H](O)C1` [Compound 33], the IC50 (GP2d cells (KRAS G12D); GP2d) is reported as 0.1 to 1 µM, the IC50 [1] is reported as 0.1 to 1 µM and the IC50 [2] is reported as 0.1 to 1 µM. It also gave an IC50 [3] of 0.1 to 1 µM and an IC50 [4] of 0.1 to 1 µM.
`CCN(CCO)c1nc(OC[C@@H]2C[C@@H](F)CN2C)nc2c(F)c(-c3ccc(F)c4sc(N)c(C#N)c34)c(C(F)(F)F)cc12` [Compound 177] was tested, and the IC50 (GP2d cells (KRAS G12D); GP2d) was < 0.1 µM, the IC50 [1] was 0.1 to 1 µM and the IC50 [2] was 0.1 to 1 µM. It also gave an IC50 [3] of 0.1 to 1 µM and an IC50 [4] of 0.1 to 1 µM.
`CN(c1nc(OC[C@@]23CCCN2C[C@H](F)C3)nc2c(F)c(-c3ccc(F)c4scc(C#N)c34)c(C(F)(F)F)cc12)[C@@H]1CCN(C(=O)CO)C1` [Compound 107] was tested, and the IC50 (GP2d cells (KRAS G12D); GP2d) was > 1 µM, the IC50 [1] was > 10 µM and the IC50 [2] was > 10 µM. The IC50 [3] was > 10 µM and the IC50 [4] was > 10 µM.
`CN(C[C@H](O)CO)c1nc(OC[C@@]23CCCN2C[C@H](F)C3)nc2c(F)c(-c3ccc(F)c4sc(N)c(C#N)c34)c(C(F)(F)F)cc12` [Compound 79] was tested, and the IC50 (GP2d cells (KRAS G12D); GP2d) was < 0.1 µM, the IC50 [1] was 0.1 to 1 µM and the IC50 [2] was 0.1 to 1 µM. For the same molecule, the IC50 [3] was < 0.1 µM and the IC50 [4] was 0.1 to 1 µM.
